Reference: paper PMC11871066, “Structure-based discovery of hydrocarbon-stapled paxillin peptides that block FAK scaffolding in cancer” (Nature Communications, 2025)

Columns and labels:
Assay in all cases: Eurofins KINOMEscan profiling, 97 kinases
[1] = target: 97 kinases (kinase named in endpoint) (Homo sapiens, UniProt P29317); conditions: read-out: % Ctrl, EPHA2
Procedure: (§1) This experiment was performed by Eurofins KINOMEscan™ Profiling Service. […] The lysates were centrifuged and filtered, the remaining kinases were produced in HEK-293 cells and subsequently tagged with DNA for qPCR detection. […] The liganded beads were blocked with excess biotin and washed with blocking buffer (SeaBlock (Pierce), 1% BSA, 0.05% Tween-20, 1 mM DTT). […] Test compounds were prepared as 100x stocks in 100% DMSO and directly diluted into the assay. All reactions were performed in polypropylene 384-well plates in a final volume of 0.02 ml. […] The kinase concentration in the eluates was measured by qPCR.
(§2) (negative control signal - positive control signal)] x 100. ( b) AccompanyingSelectivity Scores or S -scores
(§3) which are quantitative measures of compound selectivity. They are calculated by dividing the number of
(§4) kinases that compounds bind to by the total number of distinct kinases tested, excluding mutant variants.
(§5) S(35)= ( num ber of non -mutant kinases with %Ctrl <35)/(number of non- mutant kinases tested)], S(10)=
(§6) non- mutant kinases with %Ctrl <1)/(number of non- mutant kinases tested)].

[2] = target: 97 kinases (kinase named in endpoint) (Homo sapiens, UniProt P15056, V600E); conditions: read-out: % Ctrl, BRAF(V600E)
Procedure: as §1, §2, §3, §4, §5, §6

[3] = target: 97 kinases (kinase named in endpoint) (Homo sapiens, UniProt O15530); conditions: read-out: % Ctrl, PDPK1
Procedure: as §1, §2, §3, §4, §5, §6

[4] = target: 97 kinases (kinase named in endpoint) (Homo sapiens, UniProt Q00526); conditions: read-out: % Ctrl, CDK3
Procedure: as §1, §2, §3, §4, §5, §6

[5] = target: 97 kinases (kinase named in endpoint) (Homo sapiens, UniProt P17612); conditions: read-out: % Ctrl, PKAC-alpha
Procedure: as §1, §2, §3, §4, §5, §6

[6] = target: 97 kinases (kinase named in endpoint) (Homo sapiens, UniProt P27361); conditions: read-out: % Ctrl, ERK1
Chain of 97 kinases (kinase named in endpoint) (Homo sapiens, UniProt P27361) (P27361 whole entry): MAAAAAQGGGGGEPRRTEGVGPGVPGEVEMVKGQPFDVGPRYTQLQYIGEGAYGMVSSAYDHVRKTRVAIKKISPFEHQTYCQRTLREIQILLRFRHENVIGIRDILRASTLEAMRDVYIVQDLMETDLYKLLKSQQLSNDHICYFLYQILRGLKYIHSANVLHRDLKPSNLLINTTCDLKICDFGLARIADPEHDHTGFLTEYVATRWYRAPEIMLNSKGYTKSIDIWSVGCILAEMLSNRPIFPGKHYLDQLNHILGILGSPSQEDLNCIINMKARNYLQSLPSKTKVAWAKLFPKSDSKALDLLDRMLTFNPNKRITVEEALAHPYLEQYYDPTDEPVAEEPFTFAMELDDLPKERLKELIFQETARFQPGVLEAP
Procedure: as §1, §2, §3, §4, §5, §6

[7] = target: 97 kinases (kinase named in endpoint) (Homo sapiens, UniProt P78368); conditions: read-out: % Ctrl, CSNK1G2
Procedure: as §1, §2, §3, §4, §5, §6

[8] = target: 97 kinases (kinase named in endpoint) (Homo sapiens, UniProt Q13153); conditions: read-out: % Ctrl, PAK1
Chain of 97 kinases (kinase named in endpoint) (Homo sapiens, UniProt Q13153) (Q13153 whole entry): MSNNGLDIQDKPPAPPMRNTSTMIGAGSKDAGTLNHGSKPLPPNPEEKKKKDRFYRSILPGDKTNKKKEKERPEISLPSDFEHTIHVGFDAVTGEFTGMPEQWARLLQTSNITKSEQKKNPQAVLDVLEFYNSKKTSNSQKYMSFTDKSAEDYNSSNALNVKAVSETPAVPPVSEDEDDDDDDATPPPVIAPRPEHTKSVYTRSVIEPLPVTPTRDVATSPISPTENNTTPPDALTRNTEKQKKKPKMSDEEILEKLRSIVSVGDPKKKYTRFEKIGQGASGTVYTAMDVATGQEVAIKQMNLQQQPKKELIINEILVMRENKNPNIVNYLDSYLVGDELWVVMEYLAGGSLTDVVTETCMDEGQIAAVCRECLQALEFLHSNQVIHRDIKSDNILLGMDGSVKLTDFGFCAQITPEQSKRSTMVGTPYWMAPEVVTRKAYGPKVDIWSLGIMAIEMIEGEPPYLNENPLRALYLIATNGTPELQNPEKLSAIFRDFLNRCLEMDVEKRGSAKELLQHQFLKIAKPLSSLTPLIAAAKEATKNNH
Procedure: as §1, §2, §3, §4, §5, §6

[9] = target: 97 kinases (kinase named in endpoint) (Homo sapiens, UniProt P49841); conditions: read-out: % Ctrl, GSK3B
Procedure: as §1, §2, §3, §4, §5, §6

[10] = target: 97 kinases (kinase named in endpoint) (Homo sapiens, UniProt P04049); conditions: read-out: % Ctrl, RAF1
Chain of 97 kinases (kinase named in endpoint) (Homo sapiens, UniProt P04049) (P04049 whole entry): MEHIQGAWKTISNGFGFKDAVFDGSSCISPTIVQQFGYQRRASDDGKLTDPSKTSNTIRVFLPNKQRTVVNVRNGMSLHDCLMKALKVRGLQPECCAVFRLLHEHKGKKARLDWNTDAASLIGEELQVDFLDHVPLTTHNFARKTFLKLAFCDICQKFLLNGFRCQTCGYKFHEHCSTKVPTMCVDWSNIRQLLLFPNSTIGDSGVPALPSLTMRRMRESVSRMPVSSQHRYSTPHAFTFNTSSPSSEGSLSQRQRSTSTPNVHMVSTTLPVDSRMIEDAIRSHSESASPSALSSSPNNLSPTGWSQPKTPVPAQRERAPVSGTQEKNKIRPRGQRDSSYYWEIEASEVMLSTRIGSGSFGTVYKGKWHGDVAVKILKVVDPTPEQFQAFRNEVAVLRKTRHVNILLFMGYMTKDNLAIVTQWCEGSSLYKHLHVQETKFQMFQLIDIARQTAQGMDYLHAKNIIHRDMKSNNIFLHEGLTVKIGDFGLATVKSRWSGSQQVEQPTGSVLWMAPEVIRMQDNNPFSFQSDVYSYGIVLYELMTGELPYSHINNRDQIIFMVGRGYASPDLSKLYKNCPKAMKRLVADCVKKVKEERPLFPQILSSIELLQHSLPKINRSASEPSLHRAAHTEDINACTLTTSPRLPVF
Procedure: as §1, §2, §3, §4, §5, §6

[11] = target: 97 kinases (kinase named in endpoint) (Homo sapiens, UniProt P08069); conditions: read-out: % Ctrl, IGF1R
Procedure: as §1, §2, §3, §4, §5, §6

[12] = target: 97 kinases (kinase named in endpoint) (Homo sapiens, UniProt P00519, T315I); conditions: read-out: % Ctrl, ABL(T315I)-phosphorylated
Procedure: as §1, §2, §3, §4, §5, §6

[13] = target: 97 kinases (kinase named in endpoint) (Homo sapiens, UniProt P31751); conditions: read-out: % Ctrl, AKT2
Procedure: as §1, §2, §3, §4, §5, §6

[14] = target: 97 kinases (kinase named in endpoint) (Homo sapiens, UniProt P12931); conditions: read-out: % Ctrl, SRC
Procedure: as §1, §2, §3, §4, §5, §6

[15] = target: 97 kinases (kinase named in endpoint) (Homo sapiens, UniProt P10721); conditions: read-out: % Ctrl, KIT
Procedure: as §1, §2, §3, §4, §5, §6

[16] = target: 97 kinases (kinase named in endpoint) (Homo sapiens, UniProt Q02750); conditions: read-out: % Ctrl, MEK1
Chain of 97 kinases (kinase named in endpoint) (Homo sapiens, UniProt Q02750) (Q02750 whole entry): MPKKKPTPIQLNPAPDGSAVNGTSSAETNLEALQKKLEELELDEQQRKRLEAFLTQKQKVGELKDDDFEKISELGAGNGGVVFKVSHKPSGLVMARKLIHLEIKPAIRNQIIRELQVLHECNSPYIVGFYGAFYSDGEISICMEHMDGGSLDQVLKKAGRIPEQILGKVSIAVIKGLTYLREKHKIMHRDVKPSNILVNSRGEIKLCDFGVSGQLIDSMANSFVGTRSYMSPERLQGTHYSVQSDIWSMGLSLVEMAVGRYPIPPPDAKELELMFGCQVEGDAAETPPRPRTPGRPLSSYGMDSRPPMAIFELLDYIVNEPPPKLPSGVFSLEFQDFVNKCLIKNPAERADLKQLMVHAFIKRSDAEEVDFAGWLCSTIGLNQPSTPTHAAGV
Procedure: as §1, §2, §3, §4, §5, §6

[17] = target: 97 kinases (kinase named in endpoint) (Homo sapiens, UniProt O00444); conditions: read-out: % Ctrl, PLK4
Chain of 97 kinases (kinase named in endpoint) (Homo sapiens, UniProt O00444) (O00444 whole entry): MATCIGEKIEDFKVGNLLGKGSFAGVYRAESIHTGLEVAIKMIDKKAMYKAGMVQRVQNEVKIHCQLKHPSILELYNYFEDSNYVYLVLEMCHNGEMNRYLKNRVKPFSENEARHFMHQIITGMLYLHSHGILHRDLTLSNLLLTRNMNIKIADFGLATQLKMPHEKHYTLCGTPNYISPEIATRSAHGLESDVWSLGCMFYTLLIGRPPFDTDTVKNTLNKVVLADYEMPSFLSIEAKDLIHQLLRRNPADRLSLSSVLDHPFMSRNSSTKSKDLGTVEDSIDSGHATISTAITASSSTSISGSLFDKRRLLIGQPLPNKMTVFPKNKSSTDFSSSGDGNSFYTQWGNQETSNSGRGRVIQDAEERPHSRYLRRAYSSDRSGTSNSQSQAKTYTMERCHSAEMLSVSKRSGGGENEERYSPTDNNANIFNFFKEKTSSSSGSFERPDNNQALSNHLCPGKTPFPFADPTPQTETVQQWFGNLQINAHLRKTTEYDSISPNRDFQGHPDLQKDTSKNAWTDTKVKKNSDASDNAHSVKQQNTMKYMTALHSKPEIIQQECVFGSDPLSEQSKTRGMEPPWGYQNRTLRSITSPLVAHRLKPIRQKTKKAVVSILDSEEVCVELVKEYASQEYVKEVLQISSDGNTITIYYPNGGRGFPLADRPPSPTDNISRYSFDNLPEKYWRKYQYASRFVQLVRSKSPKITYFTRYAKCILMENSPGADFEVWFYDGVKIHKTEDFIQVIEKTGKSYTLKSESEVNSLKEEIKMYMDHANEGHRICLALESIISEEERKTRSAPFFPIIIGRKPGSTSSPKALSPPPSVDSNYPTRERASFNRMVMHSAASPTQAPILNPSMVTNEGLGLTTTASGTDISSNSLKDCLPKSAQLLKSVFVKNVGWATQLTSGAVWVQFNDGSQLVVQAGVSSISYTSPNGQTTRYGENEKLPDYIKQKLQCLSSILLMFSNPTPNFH
Procedure: as §1, §2, §3, §4, §5, §6

[18] = target: 97 kinases (kinase named in endpoint) (Homo sapiens, UniProt P21802); conditions: read-out: % Ctrl, FGFR2
Chain of 97 kinases (kinase named in endpoint) (Homo sapiens, UniProt P21802) (P21802 22-821): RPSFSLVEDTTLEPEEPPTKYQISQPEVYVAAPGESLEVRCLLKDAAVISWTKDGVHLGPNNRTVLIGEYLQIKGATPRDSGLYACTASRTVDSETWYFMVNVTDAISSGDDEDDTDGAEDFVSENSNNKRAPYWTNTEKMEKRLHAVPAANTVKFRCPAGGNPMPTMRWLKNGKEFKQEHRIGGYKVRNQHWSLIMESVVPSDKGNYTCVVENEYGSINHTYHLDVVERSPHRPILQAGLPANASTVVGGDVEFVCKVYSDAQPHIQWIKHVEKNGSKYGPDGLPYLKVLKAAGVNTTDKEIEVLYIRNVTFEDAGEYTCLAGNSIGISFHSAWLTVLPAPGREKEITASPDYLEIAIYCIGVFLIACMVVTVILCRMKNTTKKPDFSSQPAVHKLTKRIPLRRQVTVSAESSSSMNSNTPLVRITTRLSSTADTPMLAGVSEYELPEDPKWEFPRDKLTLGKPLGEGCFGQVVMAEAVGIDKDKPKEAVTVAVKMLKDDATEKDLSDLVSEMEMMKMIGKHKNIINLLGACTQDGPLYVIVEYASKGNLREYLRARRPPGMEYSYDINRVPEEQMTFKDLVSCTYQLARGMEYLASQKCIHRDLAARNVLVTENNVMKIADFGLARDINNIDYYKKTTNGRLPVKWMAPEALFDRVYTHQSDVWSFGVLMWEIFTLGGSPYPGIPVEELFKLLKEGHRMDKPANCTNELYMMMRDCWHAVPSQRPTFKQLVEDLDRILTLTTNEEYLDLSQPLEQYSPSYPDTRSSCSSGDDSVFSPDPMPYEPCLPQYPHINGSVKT
Procedure: as §1, §2, §3, §4, §5, §6

[19] = target: 97 kinases (kinase named in endpoint) (Homo sapiens, UniProt O14920); conditions: read-out: % Ctrl, IKK-beta
Chain of 97 kinases (kinase named in endpoint) (Homo sapiens, UniProt O14920) (O14920 whole entry): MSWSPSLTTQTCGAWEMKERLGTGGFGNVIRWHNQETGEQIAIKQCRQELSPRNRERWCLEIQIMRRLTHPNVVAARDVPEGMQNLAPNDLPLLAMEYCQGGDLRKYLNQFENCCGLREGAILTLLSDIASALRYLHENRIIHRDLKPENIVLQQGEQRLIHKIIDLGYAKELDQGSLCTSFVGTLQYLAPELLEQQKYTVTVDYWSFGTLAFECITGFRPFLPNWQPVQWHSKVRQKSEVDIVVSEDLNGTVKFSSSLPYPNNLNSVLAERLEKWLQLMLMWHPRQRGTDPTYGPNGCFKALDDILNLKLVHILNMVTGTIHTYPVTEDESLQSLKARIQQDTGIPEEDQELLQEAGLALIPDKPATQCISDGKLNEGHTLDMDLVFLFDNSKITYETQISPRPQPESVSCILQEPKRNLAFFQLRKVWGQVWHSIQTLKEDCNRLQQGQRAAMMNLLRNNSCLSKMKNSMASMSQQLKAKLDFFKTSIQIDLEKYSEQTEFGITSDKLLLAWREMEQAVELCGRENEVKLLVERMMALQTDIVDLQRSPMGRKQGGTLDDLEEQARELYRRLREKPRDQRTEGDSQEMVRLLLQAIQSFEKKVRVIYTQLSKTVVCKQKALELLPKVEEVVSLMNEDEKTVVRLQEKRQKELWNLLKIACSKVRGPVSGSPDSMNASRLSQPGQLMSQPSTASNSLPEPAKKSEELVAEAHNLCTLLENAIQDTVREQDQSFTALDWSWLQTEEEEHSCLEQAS
Procedure: as §1, §2, §3, §4, §5, §6

[20] = target: 97 kinases (kinase named in endpoint) (Homo sapiens, UniProt P04629); conditions: read-out: % Ctrl, TRKA
Procedure: as §1, §2, §3, §4, §5, §6

[21] = target: 97 kinases (kinase named in endpoint) (Homo sapiens, UniProt P35968); conditions: read-out: % Ctrl, VEGFR2
Procedure: as §1, §2, §3, §4, §5, §6

[22] = target: 97 kinases (kinase named in endpoint) (Homo sapiens, UniProt Q9BVS4); conditions: read-out: % Ctrl, RIOK2
Procedure: as §1, §2, §3, §4, §5, §6

[23] = target: 97 kinases (kinase named in endpoint) (Homo sapiens, UniProt P16234); conditions: read-out: % Ctrl, PDGFRA
Procedure: as §1, §2, §3, §4, §5, §6

[24] = target: 97 kinases (kinase named in endpoint) (Homo sapiens, UniProt P80192); conditions: read-out: % Ctrl, MLK1
Procedure: as §1, §2, §3, §4, §5, §6

[25] = target: 97 kinases (kinase named in endpoint) (Homo sapiens, UniProt Q96GD4); conditions: read-out: % Ctrl, AURKB
Procedure: as §1, §2, §3, §4, §5, §6

[26] = target: 97 kinases (kinase named in endpoint) (Homo sapiens, UniProt P50750); conditions: read-out: % Ctrl, CDK9
Chain of 97 kinases (kinase named in endpoint) (Homo sapiens, UniProt P50750) (P50750 whole entry): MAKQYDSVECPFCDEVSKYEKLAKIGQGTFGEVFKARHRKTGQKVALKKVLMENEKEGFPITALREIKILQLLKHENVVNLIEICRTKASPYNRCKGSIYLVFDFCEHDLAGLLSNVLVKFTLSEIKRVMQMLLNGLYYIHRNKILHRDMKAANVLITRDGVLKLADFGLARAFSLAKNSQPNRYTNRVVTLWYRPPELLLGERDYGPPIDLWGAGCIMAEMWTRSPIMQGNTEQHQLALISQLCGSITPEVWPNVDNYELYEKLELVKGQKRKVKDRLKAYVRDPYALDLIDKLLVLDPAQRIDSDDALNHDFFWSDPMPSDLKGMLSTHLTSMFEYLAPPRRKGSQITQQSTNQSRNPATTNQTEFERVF
Procedure: as §1, §2, §3, §4, §5, §6

[27] = target: 97 kinases (kinase named in endpoint) (Homo sapiens, UniProt P10721, T670I/V559D); conditions: read-out: % Ctrl, KIT(V559D,T670I)
Procedure: as §1, §2, §3, §4, §5, §6

[28] = target: 97 kinases (kinase named in endpoint) (Homo sapiens, UniProt Q05397); conditions: read-out: % Ctrl, FAK
Procedure: as §1, §2, §3, §4, §5, §6

Row | SMILES | remaining binding at 1 µM [1] [%] | remaining binding at 1 µM [2] [%] | remaining binding at 1 µM [3] [%] | remaining binding at 1 µM [4] [%] | remaining binding at 1 µM [5] [%] | remaining binding at 1 µM [6] [%] | remaining binding at 1 µM [7] [%] | remaining binding at 1 µM [8] [%] | remaining binding at 1 µM [9] [%] | remaining binding at 1 µM [10] [%] | remaining binding at 1 µM [11] [%] | remaining binding at 1 µM [12] [%] | remaining binding at 1 µM [13] [%] | remaining binding at 1 µM [14] [%] | remaining binding at 1 µM [15] [%] | remaining binding at 1 µM [16] [%] | remaining binding at 1 µM [17] [%] | remaining binding at 1 µM [18] [%] | remaining binding at 1 µM [19] [%] | remaining binding at 1 µM [20] [%] | also measured
1 | CCCCCCCCCCCCCC(=O)N[C@@H](CC(N)=O)C(=O)N[C@@H](CC(C)C)C(=O)N[C@]1(C)CCCCCCC=CCCC[C@@](C)(C(=O)N[C@@H](CCC(=O)O)C(=O)N[C@@H](CC(C)C)C(=O)N[C@@H](CC(N)=O)C(N)=O)NC(=O)[C@H](CC(C)C)NC(=O)[C@H](CC(C)C)NC(=O)[C@H](CCCNC(=N)N)NC(=O)[C@H](CC(=O)O)NC(=O)[C@H](CC(C)C)NC(=O)[C@H](CCC(=O)O)NC1=O [compound 2012] | 98 | 100 | 99 | 89 | 91 | 100 | 99 | 100 | 100 | 81 | 100 | 100 | 93 | 99 | 96 | 94 | 97 | 90 | 100 | 100 | remaining binding at 1 µM [21]: 100%; remaining binding at 1 µM [22]: 91%; remaining binding at 1 µM [23]: 100%; remaining binding at 1 µM [24]: 100%; remaining binding at 1 µM [25]: 100%; remaining binding at 1 µM [26]: 100%; remaining binding at 1 µM [27]: 93%; remaining binding at 1 µM [28]: 96%
2 | CNC(=O)c1ccc(Nc2ncc(C(F)(F)F)c(NCc3nccnc3N(C)S(C)(=O)=O)n2)cc1 [defactinib] | 86 | 100 | 50 | 62 | 72 | 88 | 39 | 65 | 75 | 86 | 71 | 4.9 | 95 | 36 | 47 | 83 | 39 | 43 | 100 | 1 | remaining binding at 1 µM [21]: 37%; remaining binding at 1 µM [22]: 50%; remaining binding at 1 µM [23]: 82%; remaining binding at 1 µM [24]: 6.7%; remaining binding at 1 µM [25]: 13%; remaining binding at 1 µM [26]: 90%; remaining binding at 1 µM [27]: 37%; remaining binding at 1 µM [28]: 0.1%
